What was measured:
IKKε = target: T1, IKKε (Homo sapiens, UniProt Q14164); experiment: In-vitro IKKε kinase assay ([γ33]ATP filter-plate); type: biochemical; settings: text bins; read-out: IC50 for inhibition of the kinase activity of IKKε
T1 construct: His-tag; made in house; host or cells: Sf9 insect cells
T1 sequence (Q14164 1-716): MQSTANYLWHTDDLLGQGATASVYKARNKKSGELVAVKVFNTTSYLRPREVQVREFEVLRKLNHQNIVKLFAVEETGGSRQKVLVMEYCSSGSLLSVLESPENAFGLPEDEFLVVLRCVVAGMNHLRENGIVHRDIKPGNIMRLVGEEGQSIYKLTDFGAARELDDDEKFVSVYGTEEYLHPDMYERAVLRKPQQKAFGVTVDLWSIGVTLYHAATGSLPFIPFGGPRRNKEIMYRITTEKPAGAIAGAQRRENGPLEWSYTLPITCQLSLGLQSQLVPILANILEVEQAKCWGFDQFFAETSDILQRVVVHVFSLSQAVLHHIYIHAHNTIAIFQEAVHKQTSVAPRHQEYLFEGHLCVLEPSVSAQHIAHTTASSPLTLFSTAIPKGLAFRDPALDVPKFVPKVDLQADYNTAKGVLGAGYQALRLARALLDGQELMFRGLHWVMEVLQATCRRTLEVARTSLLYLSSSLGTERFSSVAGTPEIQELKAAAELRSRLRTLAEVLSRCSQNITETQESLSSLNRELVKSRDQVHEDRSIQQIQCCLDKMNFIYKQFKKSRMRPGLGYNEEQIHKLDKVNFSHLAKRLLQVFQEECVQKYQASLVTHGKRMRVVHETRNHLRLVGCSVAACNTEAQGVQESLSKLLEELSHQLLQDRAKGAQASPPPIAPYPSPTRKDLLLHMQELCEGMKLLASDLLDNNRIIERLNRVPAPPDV
Outline: (§1)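 His-tagged IKKε and TBK1 from Sf9 cells were assayed with myelin basic protein or casein and [γ33]ATP at 2×Km ATP (32 μM for IKKε, 60 μM for TBK1). Enzyme was 0.1 or 0.015 μg/ml for IKKε and 0.1 or 0.02 μg/ml for TBK1 (normal/sensitized). Reactions ran 30-45 min, were filter-captured, scintillation-counted, and normalized to DMSO after background subtraction.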

TBK1 = target: T2, TBK1 (Homo sapiens, UniProt Q9UHD2); experiment: In-vitro TBK1 kinase assay ([γ33]ATP filter-plate); type: biochemical; settings: text bins; read-out: IC50 for inhibition of the kinase activity of TBK1
T2 construct: His-tag; made in house; host or cells: Sf9 insect cells
T2 sequence (Q9UHD2 1-729): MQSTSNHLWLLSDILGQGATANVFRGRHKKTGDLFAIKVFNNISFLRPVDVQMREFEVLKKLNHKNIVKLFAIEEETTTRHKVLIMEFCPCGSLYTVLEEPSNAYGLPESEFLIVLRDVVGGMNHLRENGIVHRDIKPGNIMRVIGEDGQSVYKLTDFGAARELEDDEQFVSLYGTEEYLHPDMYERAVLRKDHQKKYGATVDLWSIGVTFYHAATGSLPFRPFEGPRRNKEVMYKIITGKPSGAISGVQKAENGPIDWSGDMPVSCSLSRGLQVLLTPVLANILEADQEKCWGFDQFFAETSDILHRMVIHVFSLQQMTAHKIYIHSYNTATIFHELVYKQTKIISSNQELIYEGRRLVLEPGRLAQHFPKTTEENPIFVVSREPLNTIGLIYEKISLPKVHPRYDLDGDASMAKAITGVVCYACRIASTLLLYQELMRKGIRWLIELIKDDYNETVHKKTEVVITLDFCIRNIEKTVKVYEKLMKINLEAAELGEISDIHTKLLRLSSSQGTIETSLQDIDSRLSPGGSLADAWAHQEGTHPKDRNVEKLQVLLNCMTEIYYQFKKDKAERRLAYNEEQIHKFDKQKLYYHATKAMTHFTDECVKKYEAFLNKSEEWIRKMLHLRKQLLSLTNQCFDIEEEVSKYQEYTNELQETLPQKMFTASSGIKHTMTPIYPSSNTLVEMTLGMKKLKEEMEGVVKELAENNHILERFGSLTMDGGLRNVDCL
Outline: as §1

[1] = test system: IKKε-mediated phosphorylation of IRF3; experiment: In-situ phosphorylation of IRF3 (pIRF3 Ser396 ELISA) in HEK293T cells cotransfected with IRF3 and IKKε; type: cell-based; settings: Homo sapiens, HEK-293T; HEK293T cells, 20 hours, text bins; read-out: IC50 for inhibition of the in-situ IKKε-mediated phosphorylation of IRF3
Outline: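 For the IRF3 ELISA, HEK293T cells cotransfected with IRF3 and IKKε were replated at 20,000/well and treated 20 h. Phospho-Ser396 IRF3 was measured by ELISA and normalised to DMSO, with viability checked by CellTiter-Glo. For IRF7, cells transfected with IRF7 and TBK1 were treated overnight, and pSer477/Ser479 IRF7 was detected by Western blot.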

Row | IC50 (IKKε) [µM] | IC50 (TBK1) [µM] | IC50 [1] [µM] | Structure (SMILES)
1 | < 0.005 | < 0.01 | < 0.1 | CCN1CCC(CCCOc2cc(Nc3nccc(-c4ccc(OC5CCOCC5)c(C#N)c4)n3)ccc2OC)CC1 [compound 521, 5-[2-({3-[3-(1-ethylpiperidin-4-yl)propoxy]-4-methoxyphenyl}amino)pyrimidin-4-yl]-2-(tetrahydro-2H-pyran-4-yloxy)benzonitrile]
2 | < 0.005 | < 0.01 | < 0.1 | COc1ccc(Nc2nccc(-c3ccc(OC4CCOCC4)c(C#N)c3)n2)cc1OCCCC1CCNCC1 [compound 522, 5-[2-({4-methoxy-3-[3-(piperidin-4-yl)propoxy]phenyl}amino)pyrimidin-4-yl]-2-(tetrahydro-2H-pyran-4-yloxy)benzonitrile]
3 | < 0.005 | < 0.01 | < 0.1 | COc1ccc(Nc2nccc(-c3ccc(OC4CCOCC4)c(C#N)c3)n2)cc1OCCCN1CCN(C(C)C)CC1 [compound 523, 5-{2-[(4-methoxy-3-{3-[4-(propan-2-yl)piperazin-1-yl]propoxy}phenyl)amino]pyrimidin-4-yl}-2-(tetrahydro-2H-pyran-4-yloxy)benzonitrile]
4 | < 0.005 | < 0.01 | 0.1 to 0.25 | COc1ccc(Nc2nccc(-c3ccc(OC4CCOCC4)c(C#N)c3)n2)cc1OCCCN1CCN(C(=O)C(C)C)CC1 [compound 524, 5-{2-[(4-methoxy-3-{3-[4-(2-methylpropanoyl)piperazin-1-yl]propoxy}phenyl)amino]pyrimidin-4-yl}-2-(tetrahydro-2H-pyran-4-yloxy)benzonitrile]
5 | < 0.005 | < 0.01 | < 0.1 | CCN1CCN(CCCOc2cc(Nc3nccc(-c4ccc(OC5CCOCC5)c(C#N)c4)n3)ccc2OC)CC1 [compound 525, 5-[2-({3-[3-(4-ethylpiperazin-1-yl)propoxy]-4-methoxyphenyl}amino)pyrimidin-4-yl]-2-(tetrahydro-21H-pyran-4-yloxy)benzonitrile]
6 | < 0.005 | < 0.01 | 0.1 to 0.25 | COc1ccc(Nc2nccc(-c3ccc(OC4CCOCC4)c(C#N)c3)n2)cc1OCCCN1CCNCC1 [compound 526, 5-[2-({4-methoxy-3-[3-(piperazin-1-yl)propoxy]phenyl}amino)pyrimidin-4-yl]-2-(tetrahydro-2H-pyran-4-yloxy)benzonitrile]

Second part, the compound before the results:

Row | Structure (SMILES) | IC50 (IKKε) [µM] | IC50 (TBK1) [µM] | IC50 [1] [µM]
7 | Cc1ccc(Nc2nccc(-c3ccc(OC4CCOCC4)c(C#N)c3)n2)cc1OCCCN1CCOCC1 [compound 517, 5-[2-({4-Methyl-3-[3-(morpholin-4-yl)propoxy]phenyl}amino)pyrimidin-4-yl]-2-(tetrahydro-2H-pyran-4-yloxy)benzonitrile] | < 0.005 | < 0.01 | < 0.1
8 | N#Cc1cc(-c2ccnc(Nc3cccc(OCCN4CCOCC4)c3)n2)ccc1OC1CCOCC1 [compound 518, 5-[2-({3-[2-(Morpholin-4-yl)ethoxy]phenyl}amino)pyrimidin-4-yl]-2-(tetrahydro-2H-pyran-4-yloxy)benzonitrile] | < 0.005 | < 0.01 | < 0.1
9 | N#Cc1cc(-c2ccnc(Nc3ccc(F)c(OCCCN4CCOCC4)c3)n2)ccc1OC1CCOCC1 [compound 519, 5-[2-({4-Fluoro-3-[3-(morpholin-4-yl)propoxy]phenyl}amino)pyrimidin-4-yl]-2-(tetrahydro-2H-pyran-4-yloxy)benzonitrile] | < 0.005 | < 0.01 | < 0.1
10 | COc1ccc(Nc2nccc(-c3ccc(OC4CCOCC4)c(C#N)c3)n2)cc1OCCCC1CCN(C(C)C)CC1 [compound 520, 5-{2-[(4-medthoxy-3-{3-[1-(propan-2-yl)piperidin-4-yl]propoxy}phenyl)amino]pyrimidin-4-yl}-2-(tetrahydro-2H-pyran-4-yloxy)benzonitrile] | < 0.005 | < 0.01 | < 0.1
